Measurements as given in patent publication US20180092908A1, “SMALL MOLECULE OXIDIZERS OF PDI AND THEIR USE” (THE TRUSTEES OF COLUMBIA UNIVERSITY IN THE CITY OF NEW YORK, priority 2015, published 2018).
Read-outs that look alike come from different tables or passages of the source.

Legend:
[1] = target: T1, recombinant catalytic a domain of human PDI A1 (PDIa) (Homo sapiens, UniProt P07237); assay: Insulin aggregation assay (PDIa reductase activity); assay type: biochemical; settings: Table 5
T1 construct: made in house; host or cells: Escherichia coli BL21-Gold (DE3)
Description: In this insulin aggregation assay (Xu et al., 2012; Jasuja et al., 2012; Khan et al., 2011; Smith et al., 2004), PDIa reduced the two disulfide bonds between the α- and β-chains of insulin, causing the β-chain to aggregate and precipitate, resulting in an increase in absorbance at 650 nm.
To investigate the mode of binding further and to determine whether the binding was reversible or irreversible, the recovery of enzymatic activity of PDIa after dilution of pre-formed concentrated PDIa-LOC14 complexes was analyzed. LOC14 (750 μM) was incubated with a concentrated solution of PDIa (500 μM). The mixture was then diluted 100-fold and PDI's enzymatic activity was measured in the insulin reduction assay. As a control, the same procedure was also performed on the sample containing an irreversible inhibitor, 16F16 (16F16 at 750 μM and PDIa at 500 μM). […] This illustrated that unlike 16F16, LOC14 binding to PDIa is reversible.

[2] = system: PC12 mHTT^Q103 cells; assay: Rescue of PC12 cells from mHTT^Q103 induced cell death (Alamar blue viability); assay type: cell-based; settings: Rattus norvegicus, PC-12; Table 5; read-out: Cell Viability Assay EC50
Description: PC12 mHTT^Q103 cells were a gift from Erik S. Schweitzer (UCLA School of Medicine, Los Angeles, Calif.). These cells are stably transfected with the first exon of human HTT gene containing the pathogenic 103 CAG/CAA repeat expansion, under the control of the ecdysteroid promoter (Aiken et al., 2004). The plasmid also contains a Bombyx mori ecdysone receptor gene fused at N-terminal with VP16 transactivation domain (Suhr et al., 1998; Vilaboa et al., 2011). Addition of the ecdysone analog, tebufenozide, to the cell culture medium is used to initiate the transcription of mutant HTT (Aiken et al., 2004).
PC12 mHTT^Q103 cells were cultured in DMEM containing 4.5 g/I glucose, 25 mM HEPES, sodium pyruvate, and no L-glutamine (Mediatech, cat. no. 15-018-CV), supplemented with 10% (v/v) Cosmic Calf serum, 2 mM L-glutamine, 100 units/mL of penicillin-streptomycin, and 0.5 mg/ml active geneticin. Cells were grown at 37° C., 9.5% CO2, and the medium was replaced with fresh medium every 2-3 days. To induce mHTT^Q103 expression for experiments, tebufenozide, a gift from Lynne Moore and Fred H. Gage (The Salk Institute for Biological Studies, La Jolla, Calif.), was added to the medium at 200 nM final concentration from 1 mM stock in 85% ethanol.
LOC mother plates with compounds at 4 mg/ml were thawed and spun down (1000 rpm, 20° C., 1 min) prior to use. Biomek FX (Beckman Coulter) robotic liquid dispenser was used to handle all liquid transferring and mixing. […] Two fold serial dilution was performed across five daughter plates by transferring 50 μl of compounds (at […]) from the D1 plate into 50 μl of PC12 medium in daughter plate D2, mixing, and then repeating the process for the remaining three plates. Daughter plate D1 with compounds at […], daughter plate D3 with compounds at 20 μl/ml and daughter plate D5 with compounds at 5 μl/ml were then used for the screen. Assay plates were set up by seeding tebufenozide-induced PC12 mHTT^Q103 cells into 384-well black, clear-bottom plates (Corning Inc. cat. no. 3712) at a density of 7,500 cells per well in 57 μl PC12 medium without geneticin. Three microliters of compound from the daughter plates (D1, D3, and D5) were added to the assay plates for a final compound concentration of 4 μl/ml, 1 μl/ml, and 0.25 μl/ml. Four wells containing uninduced PC12 mHTT^Q103 cells and four wells containing medium only, were also included on each plate as controls. The assay plates were incubated at 37° C., 9.5% CO2 for 48 hours. Twenty microliters of 40% Alamar blue (Life Technologies cat. no. DAL1100) solution in PC12 medium was added to each well (1:10 final dilution) and the plates were incubated for an additional 12-24 hours at 37° C., 9.5% CO2. Alamar blue fluorescence was read on a fluorescence plate reader (PerkinElmer Victor3) with 530 nm excitation filter and 590 nm emission filter. Each compound concentration was tested in triplicate.
The follow-up testing of primary screen hits was performed in a similar way. Fresh powder stocks of primary hits were re-ordered from vendors, dissolved in DMSO and tested in a two-fold serial dilution across 10 wells in both tebufenozide-induced and uninduced PC12 mHTT^Q103 cells. Dose-response curves were plotted as mean±SD and fit to either four-parameter sigmoidal (for uninduced cells) or bell-shaped (induced) function using Prism (GraphPad Software).
A cascade of two assays was used, involving both a phenotypic high-throughput screening (HTS) assay and an in vitro PDI reductase assay, to identify neuroprotective PDI-inhibiting compounds. […] Alamar blue was used as a fluorescent readout for viability after 48 hours of compound treatment and mHTT^Q103 induction. […] All the candidate hit compounds were re-tested in a two-fold dilution series.

[3] = target: T2, human catalytic PDI A1 a domain (PDIa) (Homo sapiens, UniProt P07237); assay: Isothermal titration calorimetry (ITC) binding to PDIa; settings: PDIa
T2 construct: made in house; host or cells: Escherichia coli BL21-Gold (DE3)
Procedure: All ITC experiments were carried out at 25° C. on MicoCal Auto-ITC200 system (GE Healthcare). Reduced PDIa was dialyzed into ITC buffer (20 mM sodium phosphate buffer pH 7.8) and loaded into a sample cell at 40 μM concentration. The compound solution was loaded into a syringe at 400 μM in the same ITC buffer with a final DMSO concentration at 0.4% (v/v). ITC titration experiments were carried out at 25° C. with 19 injections, 2 μl per injection, and 180 seconds between each injection. The reference cell power was set to 5 μcal/sec. A control experiment was performed for each compound, where each compound was titrated into buffer to account for heat released due to dilution. This background was subtracted from test data before a final dissociation constant was obtained. Data were analyzed using a one-site binding model in Origin 7.1 software. […] Gibbs free energy, ΔG, was calculated from equation ΔG=ΔH−TΔS. All other parameters, Ka, n, ΔH, ΔS, were determined directly from the titration data.
For ITC experiments with 16F16 pre-treatment, 40 μM PDIa (after dialysis into ITC buffer) was treated with 200 μM 16F16 for 12-15 hours at 4° C. Next day the whole solution was loaded into the sample cell. LOC14 at 400 μM in ITC buffer was loaded into syringe and titrated into PDIa+16F16 loaded cell. For control experiments, ITC buffer with 200 μM 16F16 was used in the cell, while 400 μM LOC14 in ITC buffer was used in the syringe.
The binding mode of LOC14 to PDIa was next investigated using isothermal titration calorimetry (ITC). ITC measures the heat released or absorbed during a biomolecular interaction. It is a direct analytical method for determining the binding and thermodynamic parameters, such as reaction stoichiometry (n), binding constants (Ka and Kd), enthalpy (ΔH), entropy (ΔS), and free energy (ΔG) of an interaction.

[4] = Table 5, read-out: ITC Assay KD

T2 sequence (P07237 with tags, fused parts or gaps): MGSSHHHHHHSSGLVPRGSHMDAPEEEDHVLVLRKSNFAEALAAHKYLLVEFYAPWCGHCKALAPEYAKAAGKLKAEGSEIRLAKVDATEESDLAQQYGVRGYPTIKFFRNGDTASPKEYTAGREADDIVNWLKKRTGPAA
T1 sequence (P07237 with tags, fused parts or gaps): as above

Compound	Insulin Assay (either active or inactive) [1]	EC50 [2] [µM]	Kd ([3]; Table 4, read-out: ITC KD) [µM]	Kd [3, 4] [µM]	ITC Assay KD ([3]; Table 5)
Cc1nnc2s[nH]c(=O)c2c1C [LC-57]	Active	12.2	–	–	–
S=c1ssc2ccccc12 [LC-49]	not active	–	–	–	–
O=c1[nH]sc2ccccc12 [BIT fragment, 1,2,Benzisothiazol-3-one]	–	–	0.142	–	–
Cc1ccc(-n2sc3ccccc3c2=O)c(Br)c1 [LC-36]	not active	1.59	–	0.0253	–
COCCn1sc2ccccc2c1=O [LC-32]	Active	0.7	–	0.158	–
O=C(Nc1ccc(N2CCOCC2)cc1)c1ccccc1S [LC-21]	not active	0.696	–	–	KD = N/A irreversible or not active
Cc1ccc(NC(=O)c2ccccc2S)c(Br)c1 [LC-34]	not active	3.77	–	–	KD = N/A irreversible or not active
NC(=O)c1cccc(F)c1SSc1c(F)cccc1C(N)=O [LC-44]	Active	7.07	–	–	KD = N/A irreversible or not active
O=c1[nH]sc2c(C(F)(F)F)cccc12 [LC-41]	not active	–	–	–	KD = N/A irreversible or not active
O=C(NCc1ccc(Br)cc1)c1ccccc1S [LC-20]	not active t	> 50	–	–	KD = N/A irreversible or not active
C[C@H](c1ccccc1)n1sc2ncccc2c1=O [LC-58]	Active	–	–	–	–
O=c1[nH]sc2c(F)cccc12 [LC-40]	Active	9.33	–	–	KD = N/A irreversible or not active
O=C(c1ccccc1)n1sc2ccccc2c1=O [LC-11]	not active	> 50	–	–	KD = N/A irreversible or not
O=C(Nc1ccc(Oc2ccccc2)cc1)c1ccccc1S [LC-33]	not active	2.94	–	–	KD = N/A irreversible or not active
O=C(Nc1ccc(Cc2ccccc2)cc1)c1ccccc1S [LC-23]	not active	3.88	–	–	KD = N/A irreversible or not active
O=C(Nc1cccc(F)c1)c1ccccc1S [LC-30]	not active	2.99	–	–	KD = N/A irreversible or not active
